IC50 and activation data for 25 compounds are collected here from patent publication US20250122192A1, “5-PYRIMIDINECARBOXAMIDE DERIVATIVES AND METHODS OF USING THE SAME” (Rgenta Therapeutics, Inc., priority 2021, published 2025).

Structures can show the parent of a compound that is named as a salt. Some results are limits rather than exact numbers.

In one assay the test system is PMS1. Nature of the assay: Mini-gene reporter assay-PMS1. The class given is cell-based. Conditions: Homo sapiens, HEK293, PMS1 mini-gene firefly luciferase reporter transiently transfected into HEK293 cells; read-out: PMS1 IC50. The essentials:
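HEK293 cells transiently transfected with a mini-gene construct: skipped exon with flanking introns and exons fused to firefly luciferase in pcDNA3.1, so exon inclusion raises luciferase signal. Compounds tested in duplicate dilutions, luminescence read after incubation, EC50 fitted by Levenberg-Marquardt.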
Background: In a reporter assay the amount or activity of a reporter protein is the signal.
Regarding `CCOc1nc(N2CCOC3(CCNC3)C2)ncc1C(=O)Nc1cc(F)c2nc(C)cn2c1` (stereo not shown) [Compound 195], the half-maximal inhibitory concentration (IC50) was in the range of 1 to 3 µM.
As for `CCOc1nc(N2CCC(C3NCC3(C)C)CC2)ncc1C(=O)Nc1cc(F)c2nc(C)cn2c1` (stereo not shown) [Compound 123], the IC50 is under 0.5 µM.
Consider `CCOc1nc(N2CCCC(N3CCNCC3)C2)ncc1C(=O)Nc1cc(F)c2nc(C)cn2c1` (stereo not shown) [Compound 194], for which the IC50 lay in the range of 0.5 to 1 µM.
As to `CCOc1nc(N2CCN[C@H](C)C2)ncc1C(=O)Nc1cc(F)c2nc(C)cn2c1` [Compound 3, 4-ethoxy-N-{8-fluoro-2-methylimidazo[1,2-a]pyridin-6-yl}-2-[(3R)-3-methylpiperazin-1-yl]pyrimidine-5-carboxamide], the IC50 fell in the range of 0.5 to 1 µM.
Turning to `Cc1cn2cc(NC(=O)c3cnc(N4CCNCC4)nc3)cc(F)c2n1` [Compound 21, N-{8-fluoro-2-methylimidazo[1,2-a]pyridin-6-yl}-2-(piperazin-1-yl)pyrimidine-5-carboxamide], the IC50 was in the range of 1 to 3 µM.
With `CCOc1nc(N2CC3CNCC3C2)ncc1C(=O)Nc1cc(F)c2nc(C)cn2c1` (stereo not shown) [Compound 8, 4-ethoxy-N-{8-fluoro-2-methylimidazo[1,2-a]pyridin-6-yl}-2-{octahydropyrrolo[3,4-c]pyrrol-2-yl}pyrimidine-5-carboxamide], the IC50 is under 0.5 µM.
For `CCOc1nc(N2CCCC(CNC)C2)ncc1C(=O)Nc1cc(F)c2nc(C)cn2c1` (stereo not shown) [Compound 228], the IC50 lay in the range of 0.5 to 1 µM.
`CCOc1nc(N2CCCC(C3CCNC3)C2)ncc1C(=O)Nc1cc(F)c2nc(C)cn2c1` (stereo not shown) [Compound 108]: the IC50 fell in the range of 0.5 to 1 µM.
With `CCOc1nc(N2CC(C)OC3(CCNC3)C2)ncc1C(=O)Nc1cc(F)c2nc(C)cn2c1` (stereo not shown) [Compound 149], the IC50 was over 3 µM.
With `CCOc1nc(N2CCC3CCC(C2)N3)ncc1C(=O)Nc1cc(F)c2nc(C)cn2c1` (stereo not shown) [Compound 167], the IC50 is 1 to 3 µM.
`CCOc1nc(N2C[C@@H]3C[C@H]2CN3)ncc1C(=O)Nc1cn2cc(C)nc2c(C)n1` [Compound 55]: the IC50 was over 3 µM.
On the same count and under the same terms, in the case of `CCOc1nc(N2CCC(CNC(C)C)CC2)ncc1C(=O)Nc1cc(F)c2nc(C)cn2c1` [Compound 119] it was under 0.5 µM.
Consider `CCOc1nc(N2CCCC3CNCCC32)ncc1C(=O)Nc1cc(F)c2nc(C)cn2c1` (stereo not shown) [Compound 132], for which the IC50 was under 0.5 µM.
For the compound `CCOc1nc(N2CCC(N(C)C)C2)ncc1C(=O)Nc1cc(F)c2nc(C)cn2c1` (stereo not shown) [Compound 269, 2-(3-(dimethylamino)pyrrolidin-1-yl)-4-ethoxy-N-(8-fluoro-2-methylimidazo[1,2-a]pyridin-6-yl)pyrimidine-5-carboxamide], the 50% inhibitory concentration (IC50) lay within 1 to 3 µM.
As for `Cn1cc2cc(NC(=O)c3cnc(N4CCNCC4)nc3OCC(F)F)cc(F)c2n1` [Compound 302, 4-(2,2-difluoroethoxy)-N-(7-fluoro-2-methyl-2H-indazol-5-yl)-2-(piperazin-1-yl)pyrimidine-5-carboxamide], the concentration for half-maximal inhibition (IC50) was over 3 µM.
Regarding `CCOc1nc(N2CCC(NC)C2)ncc1C(=O)Nc1cc(F)c2nc(C)cn2c1` (stereo not shown) [Compound 229], the IC50 was under 0.5 µM.
On to `CCOc1nc(N(C)C2CCNCC2)ncc1C(=O)Nc1cc(F)c2nn(C)cc2c1` [Compound 275, 4-ethoxy-N-(7-fluoro-2-methyl-2H-indazol-5-yl)-2-(methyl(piperidin-4-yl)amino) pyrimidine-5-carboxamide formate], for which the IC50 was under 0.5 µM.
On to `CCOc1nc(N2C[C@@H](C)N[C@@H](C)C2)ncc1C(=O)Nc1cc(F)c2nn(C)cc2c1` [Compound 280, 2-((3R,5S)-3,5-dimethylpiperazin-1-yl)-4-ethoxy-N-(7-fluoro-2-methyl-2H-indazol-5-yl)pyrimidine-5-carboxamide 4-methylbenzenesulfonate], for which the half-inhibitory concentration (IC50) was 1 to 3 µM.
Still for that read-out and setting: to `CCOc1nc(N2CCC(NC)C2)ncc1C(=O)Nc1cc(OC)c2nc(C)cn2c1` (stereo not shown) [Compound 283, 4-ethoxy-N-(8-methoxy-2-methylimidazo[1,2-a]pyridin-6-yl)-2-(3-(methylamino)pyrrolidin-1-yl)pyrimidine-5-carboxamide formate] belongs under 0.5 µM.
Turning to `CCOc1nc(N2CCNC(C)C2)ncc1C(=O)Nc1cc(F)c2nc(C)cn2c1` (stereo not shown) [Compound 243], the IC50 is under 0.5 µM.
Still for that read-out and setting: in the case of `CCOc1nc(N(CC)C2CCCNC2)ncc1C(=O)Nc1cc(F)c2nc(C)cn2c1` (stereo not shown) [Compound 215] it was 1 to 3 µM; in that of `COc1nc(NC2CCNCC2)ncc1C(=O)Nc1cn2cc(C)nc2cn1` [Compound 271, 4-methoxy-N-(2-methylimidazo[1,2-a]pyrazin-6-yl)-2-(piperidin-4-ylamino) pyrimidine-5-carboxamide 2,2,2-trifluoroacetate], over 3 µM.
With `CCOc1nc(N2CCC(NC)C2)ncc1C(=O)Nc1ccc2nn(C)cc2c1` (stereo not shown) [Compound 270, 4-ethoxy-N-(2-methyl-2H-indazol-5-yl)-2-(3-(methylamino)pyrrolidin-1-yl)pyrimidine-5-carboxamide hydrochloride], the half-maximal inhibitory concentration (IC50) is under 0.5 µM.
On to `CCOc1nc(N(C)C2CCNC2)ncc1C(=O)Nc1cc(F)c2nc(C)cn2c1` (stereo not shown) [Compound 238], for which the half-maximal inhibitory concentration (IC50) was under 0.5 µM.

The same assay, now with this note: Homo sapiens; at 5 μM; PMS1 mini-gene firefly luciferase reporter in HEK293 cells; read-out: PMS1% Effect at 5 μM.
Take `CCOc1nc(N2CCCC3(CNCCO3)C2)ncc1C(=O)Nc1cc(F)c2nc(C)cn2c1` (stereo not shown) [Compound 172]: the activation at 5 µM was under 50%.

By IC50 is commonly meant the concentration needed to halve the response being measured.
